The record followed here is PubChem BioAssay AID179 (DTP/NCI, 2004).

This test deals with CEM cells HIV-1 protection, formazan growth assay. Put plainly: NCI AIDS Antiviral Assay. Conditions: for pIC50: measured here: growth of uninfected CEM cells. In outline:
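Soluble formazan readout of cell growth; CEM cells ± HIV-1; 5 drug concs. ≥50% protection → retest; ≥50% again = moderately active; reproducible 100% = confirmed active.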

pEC50, pIC50: −log10 of the molar value. The source made the active and inactive calls.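 How the source made its calls: active means compounds giving half or more protection of infected cells from virus-caused growth loss, again on retest; inactive means the rest.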 Where only a bound is given, the exact number is not on record here.

Consider `CN(O)C(=O)Cc1ccccc1`, for which the pEC50 is < 4.82 and the pIC50 is < 4.82.

Take `CCN(CC)C(=S)SS(=O)(=O)c1ccccc1[N+](=O)[O-]`: the pEC50 was < 3.70 and the negative logarithm of the IC50 (pIC50) is 5.14.

Turning to `N#Cc1c(-c2ccccc2)[nH]c(=O)n(C2OC(CO)C(O)C(O)C2O)c1=O` (configuration not stated), the pEC50 is < 3.70, the result was inactive and the pIC50 is < 3.70.

As to `O=c1/c(=C\c2ccccc2)sc2n1C(c1ccccc1)C1(O)CCCCC1N=2` (configuration not stated), the pEC50 is < 3.70 and the pIC50 was 4.22.

As to `Cc1ccc([C@H]2CC(=O)C[C@H](c3ccc(C)cc3)C23C(=O)c2ccccc2C3=O)cc1`, the pEC50 was < 3.70 and the negative logarithm of the IC50 (pIC50) is < 3.70.

Consider `CC(=O)OCC1OC(NC(=S)N/N=C2\CC(c3ccccc3)Oc3ccccc32)C(OC(C)=O)C(OC(C)=O)C1OC(C)=O` (configuration not stated), for which the outcome was inactive.

On to `O=C(/C=C/c1ccc(Cl)cc1)Oc1ccc(/C=C2\CCCCC2=O)cc1`, for which the pEC50 is < 3.70 and the negative logarithm of the IC50 (pIC50) was 4.37.

Turning to `CC(=O)NC1=CC(=O)c2cc(C)cc(O)c2C1=O`, the pEC50 was < 3.70 and the pIC50 is 5.30.

Turning to `O=C1C=C(N2CCOCC2)c2cnccc2C1=O`, the result was inactive.

For the compound `C1=Cc2ccccc2/C1=C/c1ccc2c(c1)OCO2`, the pEC50 is < 4.68 and the pIC50 was 4.91.

On to `N#C/C(=C1\N=C(c2ccccc2O)Oc2ccccc21)c1ccc([N+](=O)[O-])cc1`, for which the pEC50 is < 4.00 and the pIC50 is < 4.00.

As for `CCOC(=O)N1CC2OC(n3cc(C)c(=O)[nH]c3=O)CC2O1` (configuration not stated), the pEC50 is < 3.70 and the pIC50 was < 3.70.

With `COc1ccc(-c2cc(-c3ccco3)c(C#N)c(=O)[nH]2)cc1`, the pEC50 is < 4.61 and the negative-log IC50 (pIC50) is < 4.61.

As to `CCC(COC(=O)CC[C@@H](NC(=O)C(C)NC(=O)C(C)OC1C(O)C(CO)OC(OCc2ccccc2)C1NC(C)=O)C(N)=O)NC1c2ccccc2Nc2cccc([N+](=O)[O-])c21` (some centres not stated), the pEC50 was < 3.70 and the negative logarithm of the IC50 (pIC50) was 3.84.

On to `COc1cc(C=C2N=C(c3ccccc3)N(n3c(-c4ccccc4)nc4ccccc4c3=O)C2=O)cc(OC)c1OC`, for which the pEC50 was < 3.70 and the pIC50 is 4.51.

`COc1cc(N=Nc2ccccc2C(=O)[O-])cc(/C=N/NC(N)=S)c1[O-].[O]=[Mo]=[O].[O]=[Mo]=[O]`: the result was inactive.

With `CNC1=C(C)C(=O)C(=O)C([C@H](C)CCC=C(C)C)=C1O`, the pEC50 was < 3.70 and the pIC50 is 5.21.

For the compound `COc1cc2c(cc1OC)Cc1cc(OC)c(OC)cc1Cc1cc(OC)c(OC)cc1C2`, the result was inactive.

In the case of `Cc1nc2sccn2c1C(=O)NNC(N)=S`, the pEC50 is < 3.43 and the pIC50 is < 3.43.

In the case of `COC(=O)c1ccccc1C1CN=NC12Cc1ccc(C)cc1C2=O` (configuration not stated), the pEC50 is < 3.70 and the negative-log IC50 (pIC50) is 4.20.

Consider `Cc1ccc(S(=O)(=O)NC(=O)NN2CCCCCC2)cc1`, for which the pEC50 is < 3.70 and the negative logarithm of the IC50 (pIC50) was < 3.70.

With `C=C(CO[Si](C)(C)C(C)(C)C)C(C)=O`, the outcome was inactive.

For `S=C1CC(c2ccccc2)Sc2ccc(Cl)cc2N1` (configuration not stated), the pEC50 is < 3.70 and the pIC50 was 4.46.

For the compound `O=[N+]([O-])c1ccc2cnn(C[N+]34CN5CN(CN(C5)C3)C4)c2c1`, the result was inactive.

Consider `O=c1cnn2c(n1)OC1C(O)C(CO)OC12` (configuration not stated), for which the pEC50 was < 3.70 and the negative logarithm of the IC50 (pIC50) was 4.72.

In the case of `O=C1OCCOCCSCCOCCOC(=O)c2cccc1n2`, the pEC50 is < 3.27 and the negative-log IC50 (pIC50) was 4.43.

As for `c1ccc(-c2nnc(SSSSc3nnc(-c4ccccc4)o3)o2)cc1`, the pEC50 is < 3.70 and the negative-log IC50 (pIC50) was 3.97.

As to `NC1=NC(Cn2nc(-c3ccccc3)c3ccccc3c2=O)=NNC(=O)N1`, the pEC50 was < 4.70 and the negative logarithm of the IC50 (pIC50) is < 4.70.

Turning to `O=[N+]([O-])C1C2C=CC(C2)[C@H]1c1ccccc1Cl` (some centres not stated), the result was inactive.
